# Measurements from patent US8088828B2, “Treating benign prostate hyperplasia with SARMS” (priority 2002, dated 2012).
# Experiments:
# [1] = system: male Sprague-Dawley rats (intact, hemi-orchidectomized, castrated); assay: Plasma testosterone, FSH, LH and osteocalcin in rats of varying hormonal status; format: in vivo, rat; settings: for Plasma FSH levels / Plasma LH levels / Plasma osteocalcin levels / Plasma testosterone levels: 0.5 mg/day osmotic pump, 14 days
# From the text: (§1) Methods: Compound VI was synthesized and characterized in the laboratory of Dr. Duane Miller at the University of Tennessee, Memphis, Tenn. Male Sprague-Dawley rats were purchased from Harlan Biosciences (Indianapolis, Ind.). The animals were maintained on a 12-h cycle of light and dark with food and water available ad libitum. All animal studies were reviewed and approved by the Animal Care and Use Committee of The Ohio State University, and conformed to the Principles of Laboratory Animal Care. Immature male Sprague-Dawley rats weighing […] were randomly distributed into 9 groups of 5 animals. One day before the initiation of drug treatment, groups 4 through 6 and groups 7 through 9 received unilateral or bilateral orchidectomy, respectively, via a midline scrotal incision. […] All drugs given to animals were freshly prepared as solutions in polyethylene glycol 300 (PEG 300). Groups 4 and 7 received treatment with vehicle alone (i.e., PEG 300). Animals in groups 3, 6, and 9 received testosterone propionate (TP, 0.5 mg/day) via implantation of subdermal osmotic pumps (Model 2002, Durect Corporation, Palo Alto, Calif.). Animals in groups 2, 5, and 8 received Compound VI (0.5 mg/day) via implantation of subdermal osmotic pumps. After 14 days of drug treatment, rats were weighed, anesthetized, and sacrificed. Blood samples were collected by venipuncture of the abdominal aorta. Plasma samples were analyzed for testosterone, FSH, LH and osteocalcin. Testosterone concentrations were measured by AniLytics Inc. (Gaithersburg, Md.). FSH and LH levels were measured by the National Hormone and Peptide Program (Dr. A F Parlow, UCLA, CA). Plasma osteocalcin levels were determined using a commercially available rat osteocalcin EIA kit from Biomedical Technologies Inc. (Stoughton, Mass.). The ventral prostates, seminal vesicles, and levator ani muscle were removed and weighed. Osmotic pumps were also removed from animals to check for correct pump operation. The weights of all organs were normalized to body weight, and analyzed for any statistically significant differences between groups using single-factor ANOVA with the alpha value set a priori at p<0.05. The weights of prostates and seminal vesicles were used as indices for evaluation of androgenic activity, and the levator ani muscle weight was used to evaluate the anabolic activity. Statistical analyses of parameters from complete blood count or serum chemical profiling, wherever applicable, were performed by single-factor ANOVA with the alpha value set a priori at p<0.05.
# [2] = system: male Sprague-Dawley rats (intact, hemi-orchidectomized, castrated); assay: Prostate, seminal vesicle and levator ani muscle weights in rats of varying hormonal status; format: in vivo, rat; settings: 0.5 mg/day, 14 days
# From the text: as §1
# [3] = system: intact male Sprague-Dawley rats; assay: Organ weights in intact male rats after 3, 6 or 9 days of daily subcutaneous injections; format: in vivo, rat
# Experimental: Methods: Male Sprague-Dawley rats were purchased from Harlan Biosciences (Indianapolis, Ind.). The animals were maintained on a 12-h cycle of light and dark with food and water available ad libitum. Male Sprague-Dawley rats weighing 189 to 226 g were randomly distributed into groups of 5 animals. The intact male rats were treated with hydroxy-flutamide (0.5, 1, 5, 10 or 25 mg/kg), finasteride (5 mg/kg), Compound VII (0.5, 1, 5, 10, 25 mg/kg) or vehicle for 3, 6, or 9 days. The drugs were dissolved in DMSO:PEG300 (20:80, v:v) and administered via daily subcutaneous injections, and the dosages were adjusted based on animal's body weight, which was measured on a daily basis. A group of castrated rats (n=5) was also included as control for each time point. […] The organ weights were normalized with the body weights. Percentage changes were determined by comparison to intact animals. Statistical analyses of all the parameters were performed by single-factor ANOVA with the alpha value set a priori at p<0.05.
# [4] = target: T1, human 5α-reductase type 1 (Homo sapiens, UniProt P18405); format: cell-based; settings: testosterone 4 μM alone, 2 hours
# T1 construct: expressed in transfected cells; host or cells: COS1 cells; expression vectors obtained from Dr. David W. Russell
# T1 sequence (P18405 1-259): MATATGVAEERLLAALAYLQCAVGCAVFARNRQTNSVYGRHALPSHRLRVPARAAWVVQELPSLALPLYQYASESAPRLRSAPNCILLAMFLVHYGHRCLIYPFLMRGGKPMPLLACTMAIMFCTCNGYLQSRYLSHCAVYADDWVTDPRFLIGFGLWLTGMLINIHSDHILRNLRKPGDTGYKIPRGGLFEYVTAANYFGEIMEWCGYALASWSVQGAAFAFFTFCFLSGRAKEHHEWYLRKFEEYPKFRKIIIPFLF
# Experimental: (§2) Methods: COS1 (American Type Culture Collection, Manassas, Va.) cells were plated in twelve-well plates at a density of 60,000 cells/well and transiently transfected with expression vectors for human 5•-reductase (obtained from Dr. David W. Russell, Southwestern Medical Center, Dallas, Tex.). LipofectAMINE PLUS™ Reagent (Invitrogen, Carlsbad, Calif.) was used for transfection. pCMV•SPORT-•gal plasmid (Invitrogen, Carlsbad, Calif.) was co-transfected to monitor transfection efficiency. Forty-eight hours after transfection, testosterone (4 μM) and/or Compound VI (2 or 200 μM) were added to the medium and incubated at 37° C. Aliquots of the culture medium were removed after 2 hours and the reaction stopped by addition of ice-cold acetonitrile (1:1, vol:vol). Testosterone and Compound VI concentrations in the incubate were determined by HPLC using a reversed-phase column (μBondaPak C18, 3.9×300 mm, Waters Corporation, Milford, Mass.) and a mobile phase of 38% acetonitrile in deionized water at a flow rate of 1.5 ml/min. Analytes were detected by UV absorbance at 254 nm. Calibration curves were prepared using the peak areas to calculate the concentration of testosterone or Compound VI in the incubate at the completion of the reaction. Cells were lysed after the reaction and the cellular supernatant used to determine •-galactosidase activity and ensure equal transfection efficiency between wells.
# [5] = target: T2, human 5α-reductase type 2 (Homo sapiens, UniProt P31213); format: cell-based; settings: testosterone 4 μM alone, 2 hours
# T2 construct: expressed in transfected cells; host or cells: COS1 cells; expression vectors obtained from Dr. David W. Russell
# T2 sequence (P31213 1-254): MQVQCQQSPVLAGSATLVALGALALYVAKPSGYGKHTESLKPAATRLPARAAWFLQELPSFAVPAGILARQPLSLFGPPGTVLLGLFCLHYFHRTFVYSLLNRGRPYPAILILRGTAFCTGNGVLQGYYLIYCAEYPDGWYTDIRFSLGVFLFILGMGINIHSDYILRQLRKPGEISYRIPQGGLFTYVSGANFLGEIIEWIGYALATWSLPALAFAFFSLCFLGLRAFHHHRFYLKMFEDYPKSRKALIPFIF
# Experimental: as §2
# [6] = 3 days, all doses (0.5, 1, 5, 10, mg/kg) s.c.
structure (smiles),measurement,setting,value
"CCC(=O)O[C@H]1CC[C@H]2[C@@H]3CCC4=CC(=O)CC[C@]4(C)[C@H]3CC[C@]12C [TP, testosterone propionate, reference compound]",effect on plasma osteocalcin levels,"[1]; all surgical groups, 0.5 mg/day",no effect
same,effect on plasma FSH and LH levels,"[1]; castrated male rats, 0.5 mg/day",significant decrease
same,Plasma FSH levels,[1]; castrated rats,58.0 ± 6.9 † ‡ ng/ml
same,Plasma LH levels,[1]; castrated rats,6.702 ± 1.513 ‡ ng/ml
same,Plasma osteocalcin levels,[1]; castrated rats,65.976 ± 11.213 ng/mL
same,Plasma testosterone levels,[1]; castrated rats,0.258 ± 0.103 † ‡ ng/ml
same,Plasma FSH levels,[1]; hemi-orchidectomized rats,17.2 ± 3.3 ng/mL
same,Plasma LH levels,[1]; hemi-orchidectomized rats,0.124 ± 0.092 ng/mL
same,Plasma osteocalcin levels,[1]; hemi-orchidectomized rats,77.236 ± 24.418 ng/mL
same,Plasma testosterone levels,[1]; hemi-orchidectomized rats,2.366 ± 1.232 ng/mL
same,Plasma FSH levels,[1]; intact rats,11.4 ± 1.7 ng/mL
same,Plasma LH levels,[1]; intact rats,0.168 ± 0.173 ng/mL
same,Plasma osteocalcin levels,[1]; intact rats,74.952 ± 15.399 ng/mL
same,Plasma testosterone levels,[1]; intact rats,1.482 ± 0.416 ng/mL
same,Levator ani muscle weight normalized to body weight,[2]; castrated rats,87.27 ± 10.25 % of intact control
same,Prostate weight normalized to body weight,[2]; castrated rats,76.78 ± 10.43 % of intact control
same,Seminal vesicle weight normalized to body weight,[2]; castrated rats,63.48 ± 17.05 % of intact control
same,Levator ani muscle weight normalized to body weight,[2]; hemi-orchidectomized rats,98.63 ± 10.47 % of intact control
same,Prostate weight normalized to body weight,[2]; hemi-orchidectomized rats,98.57 ± 7.98 % of intact control
same,Seminal vesicle weight normalized to body weight,[2]; hemi-orchidectomized rats,114.19 ± 23.81 % of intact control
same,Levator ani muscle weight normalized to body weight,[2]; intact rats,95.61 ± 9.34 % of intact control
same,Prostate weight normalized to body weight,[2]; intact rats,97.45 ± 10.82 % of intact control
same,Seminal vesicle weight normalized to body weight,[2]; intact rats,103.95 ± 13.23 % of intact control
CC(C)(C)NC(=O)[C@H]1CC[C@H]2[C@@H]3CC[C@H]4NC(=O)C=C[C@]4(C)[C@H]3CC[C@]12C [finasteride],effect on levator ani muscle weight,"[3]; 3 days, 5 mg/kg s.c.",no effect
same,prostate weight (compared to intact animals),"[3]; 3 days, 5 mg/kg s.c.",59%
same,seminal vesicle weight (compared to intact animals),"[3]; 3 days, 5 mg/kg s.c.",38%
same,changes in levator ani muscle weight,"[3]; 6 days, 5 mg/kg s.c.",no significant changes
same,prostate weight (compared to intact animals),"[3]; 6 days, 5 mg/kg s.c.",67%
same,seminal vesicle weight (compared to intact animals),"[3]; 6 days, 5 mg/kg s.c.",47%
same,change in levator ani muscle weight,"[3]; 9 days, 5 mg/kg s.c.",not significantly changed
same,prostate weight (compared to intact animals),"[3]; 9 days, 5 mg/kg s.c.",55%
same,seminal vesicle weight (compared to intact animals),"[3]; 9 days, 5 mg/kg s.c.",29%
CC(C)(O)C(=O)Nc1ccc([N+](=O)[O-])c(C(F)(F)F)c1 [hydroxy-flutamide],levator ani muscle weight (compared to intact animals),[3]; [6],~85%
same,"prostate weight (normalized to body weight, compared to intact animals)",[3]; [6],approximately 60%
same,seminal vesicle weight (compared to intact animals),[3]; [6],~50%
same,levator ani muscle weight (compared to intact animals),"[3]; 6 days, 25 mg/kg s.c.",65%
same,prostate weight (compared to intact animals),"[3]; 6 days, 25 mg/kg s.c.",54%
same,seminal vesicle weight (compared to intact animals),"[3]; 6 days, 25 mg/kg s.c.",41%
same,"organ weights (prostate, seminal vesicle, levator ani muscle)","[3]; 6 days, lower dose groups (0.5, 1, 5, 10 mg/kg) s.c.",returned to the levels observed in intact animals
same,effects on all the organ weights compared to previous time points,"[3]; 9 days, 25 mg/kg s.c.",maintained its effects on all the organ weights at a similar level
same,"changes in prostate, seminal vesicle and levator ani muscle weights","[3]; 9 days, lower doses (0.5, 1, 5, 10 mg/kg) s.c., dose-dependent",moderate decreases
"C[C@]12CC[C@H]3[C@@H](CCC4=CC(=O)CC[C@@]43C)[C@@H]1CC[C@@H]2O [Testosterone, testosterone, reference compound]",decrease in testosterone concentration (conversion to DHT),[4],34%
same,decrease in testosterone concentration (conversion to DHT),[5],35%
